Experiments:
[1] = target: 5-hydroxytryptamine receptor 2B (Homo sapiens, UniProt P41595)
[2] = target: T1, Corticotropin-releasing factor receptor 1 (Homo sapiens, UniProt P34998)
T1 sequence (P34998 whole entry): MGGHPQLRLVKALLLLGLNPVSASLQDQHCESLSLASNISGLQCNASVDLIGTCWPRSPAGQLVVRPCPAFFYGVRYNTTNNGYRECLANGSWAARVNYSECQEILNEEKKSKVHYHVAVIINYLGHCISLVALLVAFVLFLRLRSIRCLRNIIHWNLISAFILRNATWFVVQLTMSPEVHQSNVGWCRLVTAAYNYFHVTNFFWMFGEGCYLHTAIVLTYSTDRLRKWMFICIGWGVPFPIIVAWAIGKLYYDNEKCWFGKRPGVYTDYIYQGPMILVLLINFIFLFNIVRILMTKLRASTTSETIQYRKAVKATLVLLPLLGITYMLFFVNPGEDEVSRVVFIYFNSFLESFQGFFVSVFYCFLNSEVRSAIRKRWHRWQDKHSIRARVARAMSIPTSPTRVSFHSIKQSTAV

[3] = target: Beta-3 adrenergic receptor (Homo sapiens, UniProt P13945)
Sequence of Beta-3 adrenergic receptor (P13945 whole entry): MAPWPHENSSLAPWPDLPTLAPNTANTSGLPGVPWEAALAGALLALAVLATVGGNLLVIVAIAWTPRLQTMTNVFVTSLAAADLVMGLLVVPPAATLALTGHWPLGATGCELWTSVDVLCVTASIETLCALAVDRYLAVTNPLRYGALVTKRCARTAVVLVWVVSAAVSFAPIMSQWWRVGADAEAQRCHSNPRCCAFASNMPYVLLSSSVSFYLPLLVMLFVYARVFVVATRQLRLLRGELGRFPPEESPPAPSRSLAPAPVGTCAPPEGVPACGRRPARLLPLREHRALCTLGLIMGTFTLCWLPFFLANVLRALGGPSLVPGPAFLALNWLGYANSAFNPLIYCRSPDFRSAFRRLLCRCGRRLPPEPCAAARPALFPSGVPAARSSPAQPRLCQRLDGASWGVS

[4] = target: T2, Neuropeptide Y receptor type 2 (Homo sapiens, UniProt P49146)
T2 sequence (P49146 whole entry): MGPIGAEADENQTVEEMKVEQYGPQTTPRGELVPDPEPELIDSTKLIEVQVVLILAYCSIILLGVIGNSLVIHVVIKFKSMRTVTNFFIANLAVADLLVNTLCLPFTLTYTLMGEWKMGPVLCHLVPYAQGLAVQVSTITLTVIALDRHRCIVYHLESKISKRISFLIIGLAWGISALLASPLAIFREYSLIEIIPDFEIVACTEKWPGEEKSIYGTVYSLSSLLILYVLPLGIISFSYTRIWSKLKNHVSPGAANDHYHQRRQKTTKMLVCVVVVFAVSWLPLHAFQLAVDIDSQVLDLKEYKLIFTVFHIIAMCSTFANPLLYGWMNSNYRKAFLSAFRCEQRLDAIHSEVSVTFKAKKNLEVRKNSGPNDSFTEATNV

B1 bradykinin receptor = target: T3, B1 bradykinin receptor (Homo sapiens, UniProt P46663)
T3 sequence (P46663 whole entry): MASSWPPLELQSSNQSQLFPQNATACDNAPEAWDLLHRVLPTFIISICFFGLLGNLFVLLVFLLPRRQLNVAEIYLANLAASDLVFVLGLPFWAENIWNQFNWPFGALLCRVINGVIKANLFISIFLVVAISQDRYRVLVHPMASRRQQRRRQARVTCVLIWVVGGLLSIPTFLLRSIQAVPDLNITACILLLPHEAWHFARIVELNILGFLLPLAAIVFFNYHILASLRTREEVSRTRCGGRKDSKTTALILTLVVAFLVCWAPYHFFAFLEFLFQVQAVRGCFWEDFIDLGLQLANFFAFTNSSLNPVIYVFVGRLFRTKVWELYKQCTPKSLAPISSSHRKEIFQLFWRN

Histamine H2 receptor = Histamine H2 receptor (Homo sapiens, UniProt P25021)
Sequence of Histamine H2 receptor (P25021 whole entry): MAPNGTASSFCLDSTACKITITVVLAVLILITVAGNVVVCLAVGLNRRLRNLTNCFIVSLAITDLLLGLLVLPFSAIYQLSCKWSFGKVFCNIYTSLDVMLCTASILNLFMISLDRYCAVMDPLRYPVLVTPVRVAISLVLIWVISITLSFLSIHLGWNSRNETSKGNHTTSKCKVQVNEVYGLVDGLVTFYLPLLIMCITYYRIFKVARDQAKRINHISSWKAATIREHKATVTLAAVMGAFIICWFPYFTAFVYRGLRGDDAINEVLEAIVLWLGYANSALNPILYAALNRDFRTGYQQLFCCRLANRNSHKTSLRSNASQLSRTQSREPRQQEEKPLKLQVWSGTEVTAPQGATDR

[5] = target: T4, Endothelin receptor type B (Homo sapiens, UniProt P24530)
T4 sequence (P24530 whole entry): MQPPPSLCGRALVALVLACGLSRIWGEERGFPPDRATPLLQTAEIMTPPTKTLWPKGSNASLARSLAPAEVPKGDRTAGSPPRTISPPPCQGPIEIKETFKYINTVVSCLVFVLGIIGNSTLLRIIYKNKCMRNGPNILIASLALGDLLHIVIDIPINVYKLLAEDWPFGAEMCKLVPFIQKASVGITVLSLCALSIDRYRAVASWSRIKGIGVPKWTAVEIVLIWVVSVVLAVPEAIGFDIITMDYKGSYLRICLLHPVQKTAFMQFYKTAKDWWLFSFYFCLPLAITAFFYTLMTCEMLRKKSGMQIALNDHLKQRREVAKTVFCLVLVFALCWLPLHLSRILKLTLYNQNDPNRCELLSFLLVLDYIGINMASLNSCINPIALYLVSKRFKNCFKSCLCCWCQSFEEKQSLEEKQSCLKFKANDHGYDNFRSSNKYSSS

[6] = target: T5, Alpha-2A adrenergic receptor (Homo sapiens, UniProt P08913)
T5 sequence (P08913 whole entry): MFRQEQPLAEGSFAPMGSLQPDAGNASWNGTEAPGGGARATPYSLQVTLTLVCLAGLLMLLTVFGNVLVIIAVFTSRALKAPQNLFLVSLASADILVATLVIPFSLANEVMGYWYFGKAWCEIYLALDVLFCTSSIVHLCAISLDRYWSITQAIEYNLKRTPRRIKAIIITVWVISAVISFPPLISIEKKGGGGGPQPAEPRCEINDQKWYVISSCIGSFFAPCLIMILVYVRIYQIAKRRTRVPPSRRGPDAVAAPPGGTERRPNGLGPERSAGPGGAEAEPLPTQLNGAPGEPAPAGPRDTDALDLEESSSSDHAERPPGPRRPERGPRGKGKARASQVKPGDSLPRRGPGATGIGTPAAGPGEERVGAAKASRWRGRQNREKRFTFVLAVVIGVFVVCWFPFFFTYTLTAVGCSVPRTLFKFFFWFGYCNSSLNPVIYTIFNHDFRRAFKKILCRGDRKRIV

Glucagon receptor = Glucagon receptor (Homo sapiens, UniProt P47871)
Sequence of Glucagon receptor (P47871 whole entry): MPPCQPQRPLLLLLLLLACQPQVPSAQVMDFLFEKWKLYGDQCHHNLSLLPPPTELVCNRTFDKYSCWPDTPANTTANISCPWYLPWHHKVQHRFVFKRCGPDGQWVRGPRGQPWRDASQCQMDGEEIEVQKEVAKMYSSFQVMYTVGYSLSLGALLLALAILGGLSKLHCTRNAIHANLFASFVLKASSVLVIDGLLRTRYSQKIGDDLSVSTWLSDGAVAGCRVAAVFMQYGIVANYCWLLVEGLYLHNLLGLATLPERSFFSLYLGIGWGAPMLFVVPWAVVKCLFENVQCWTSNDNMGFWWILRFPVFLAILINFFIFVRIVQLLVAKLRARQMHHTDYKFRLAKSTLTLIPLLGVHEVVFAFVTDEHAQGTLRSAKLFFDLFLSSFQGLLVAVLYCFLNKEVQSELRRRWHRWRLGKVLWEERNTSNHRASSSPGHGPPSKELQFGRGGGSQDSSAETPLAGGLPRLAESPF
Note: assay procedure not described here.

Sequence of 5-hydroxytryptamine receptor 2B (P41595 whole entry): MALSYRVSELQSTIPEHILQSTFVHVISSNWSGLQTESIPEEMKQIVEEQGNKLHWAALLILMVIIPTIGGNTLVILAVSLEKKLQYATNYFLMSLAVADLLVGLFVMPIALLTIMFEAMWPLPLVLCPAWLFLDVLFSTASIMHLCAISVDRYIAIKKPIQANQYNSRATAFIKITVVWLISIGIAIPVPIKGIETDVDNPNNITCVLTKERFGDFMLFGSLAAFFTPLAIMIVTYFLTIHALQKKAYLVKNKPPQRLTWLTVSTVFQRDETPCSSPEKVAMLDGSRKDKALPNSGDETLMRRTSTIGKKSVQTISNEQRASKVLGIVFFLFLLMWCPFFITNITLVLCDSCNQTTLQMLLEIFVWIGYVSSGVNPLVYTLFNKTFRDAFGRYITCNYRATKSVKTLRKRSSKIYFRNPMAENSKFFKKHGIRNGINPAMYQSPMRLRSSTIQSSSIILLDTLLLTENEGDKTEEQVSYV

Structure (SMILES) | AC50 [1] [µM] | AC50 [2] [µM] | AC50 [3] [µM] | AC50 [4] [µM] | AC50 (B1 bradykinin receptor) [µM] | AC50 (Histamine H2 receptor) [µM] | AC50 [5] [µM] | AC50 [6] [µM] | AC50 (Glucagon receptor) [µM]
COc1ccc2c3c1O[C@H]1C(=O)CC[C@H]4[C@@H](C2)N(C)CC[C@]314 [HYDROCODONE] | > 10 | > 30 | > 30 | > 30 | > 30 | > 10 | > 30 | > 10 | > 30
CC1=C(CC(=O)O)c2cc(F)ccc2/C1=C\c1ccc([S+](C)[O-])cc1 (stereo not drawn) | > 10 | > 30 | > 30 | > 30 | > 30 | > 10 | > 30 | > 10 | > 30
